Test [1] addresses T1, aminocaprolactam racemase derived from Achromobacter obae (Achromobacter obae, UniProt Q7M181).
T1 sequence (Q7M181 1-436): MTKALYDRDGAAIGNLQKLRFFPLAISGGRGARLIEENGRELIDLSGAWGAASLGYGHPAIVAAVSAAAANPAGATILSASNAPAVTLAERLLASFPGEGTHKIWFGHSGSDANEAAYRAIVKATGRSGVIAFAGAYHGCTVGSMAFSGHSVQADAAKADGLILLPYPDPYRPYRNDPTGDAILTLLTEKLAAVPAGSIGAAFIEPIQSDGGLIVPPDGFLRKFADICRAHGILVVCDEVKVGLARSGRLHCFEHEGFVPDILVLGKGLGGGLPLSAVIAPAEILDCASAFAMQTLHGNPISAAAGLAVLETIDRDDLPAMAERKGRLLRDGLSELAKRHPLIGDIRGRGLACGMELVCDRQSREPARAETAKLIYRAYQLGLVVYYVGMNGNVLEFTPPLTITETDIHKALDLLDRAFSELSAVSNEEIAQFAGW
The note with it: activity for 2-aminobutyric acid amide is 100; cited from earlier work.

For test [2], the system named is nitrile hydratase derived from Rhodococcus opacus 71D. Description: Substrate specificity of the purified enzyme from Rhodococcus opacus 71D (aminonitrile to amino acid amide, HPLC). The note with it: for Relative activity for each substrate: enzymatic properties, activity for 2-aminobutyronitrile is 100; for Relative activity: 30° C., 0.1 M potassium phosphate buffer pH 7.0, activity for 2-aminobutyronitrile = 100.

Test [3] has as its target D-aminopeptidase derived from Ochrobactrum anthropi (Brucella anthropi, UniProt Q9ZBA9). To be noted: activity for D-2-aminobutyric acid amide is 100; cited from earlier work.
Test [4] concerns L-amino acid amidase derived from Brevundimonas diminuta. To be noted: activity for L-2-aminobutyric acid amide is 100; cited from earlier work.
Test [5] concerns enzyme selectively converting the L-amino acid amide into the L-amino acid, Xanthobacter flavus. The note with it: activity for L-2-aminobutyric acid amide is 100; cited from earlier work.

D-aminopeptidase derived from Ochrobactrum anthropi, sequence (Q9ZBA9 whole entry, looked up): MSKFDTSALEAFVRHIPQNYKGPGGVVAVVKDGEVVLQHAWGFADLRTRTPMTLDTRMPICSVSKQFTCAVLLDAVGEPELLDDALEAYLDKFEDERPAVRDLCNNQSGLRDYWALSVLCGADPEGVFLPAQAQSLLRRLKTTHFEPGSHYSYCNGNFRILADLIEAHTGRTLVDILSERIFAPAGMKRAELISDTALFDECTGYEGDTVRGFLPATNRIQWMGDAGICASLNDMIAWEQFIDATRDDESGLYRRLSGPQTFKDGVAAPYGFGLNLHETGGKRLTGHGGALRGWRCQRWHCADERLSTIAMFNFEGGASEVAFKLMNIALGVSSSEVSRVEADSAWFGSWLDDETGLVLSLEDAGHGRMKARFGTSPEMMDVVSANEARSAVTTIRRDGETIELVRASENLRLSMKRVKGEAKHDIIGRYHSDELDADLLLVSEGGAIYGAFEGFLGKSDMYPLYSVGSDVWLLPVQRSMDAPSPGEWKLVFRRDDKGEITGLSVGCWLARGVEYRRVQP

As to `CCC(N)C(N)=O` (stereo not drawn) [2-aminobutyric acid amide], the “Relative activity for each substrate” value in test [1] is on record as 100.
Take `CCC(N)C#N` (stereo not drawn) [2-aminobutyronitrile]: the “Relative activity for each substrate” value in test [2] amounted to 100. The same compound displayed a Relative activity in test [2] (substrate 20 mM) of 100.
As for `CC(N)C#N` (stereo not drawn) [Alaninonitrile], the “Relative activity for each substrate” value in test [2] is on record as 77. This compound gave a Relative activity in test [2] (substrate 20 mM) of 77.0.
As to `CC[C@@H](N)C(N)=O` [D-2-aminobutyric acid amide], the “Relative activity for each substrate” value in test [3] is 100.
Consider `C[C@@H](N)C(N)=O` [D-alaninamide], for which, in test [3], the “Relative activity for each substrate” value is given as 333.
As for `CSCC[C@@H](N)C(N)=O` [D-methioninamide], the “Relative activity for each substrate” value in test [3] was 6.7.
As to `CCCC[C@@H](N)C(N)=O` [D-norleuicinamide], the “Relative activity for each substrate” value in test [3] is listed as 2.7.
With `CCC[C@@H](N)C(N)=O` [D-norvalinamide], the “Relative activity for each substrate” value in test [3] is given as 6.
On to `NC(=O)[C@H](N)c1ccccc1` [D-phenylglycinamide], for which the “Relative activity for each substrate” value in test [3] is reported as 2.3.
Consider `NC(=O)[C@H](N)CO` [D-serinamide], for which, in test [3], the “Relative activity for each substrate” value is on record as 97.
For `C[C@H](O)[C@@H](N)C(N)=O` [D-threoninamide], in test [3], the “Relative activity for each substrate” value is on record as 30.
Consider `CC[C@H](N)C(N)=O` [L-2-aminobutyric acid amide], for which the “Relative activity for each substrate” value in test [4] and in test [5] was 100 each time.
`C[C@H](N)C(N)=O` [L-alaninamide]: the “Relative activity for each substrate” value in test [1] was 78; in test [4] it was 3.4.
Regarding `CC[C@H](C)[C@H](N)C(N)=O` [L-isoleuicinamide], the “Relative activity for each substrate” value in test [4] is 30.2.
As to `CC(C)C[C@H](N)C(N)=O` [L-leuicinamide], the “Relative activity for each substrate” value in test [1] is given as 48; in test [4], 92.7.
Turning to `CSCC[C@H](N)C(N)=O` [L-methioninamide], the “Relative activity for each substrate” value is 35 in test [1] and 85.4 in test [4].
For `CCCC[C@H](N)C(N)=O` [L-norleuicinamide], in test [1], the “Relative activity for each substrate” value is on record as 56.
Turning to `CCC[C@H](N)C(N)=O` [L-norvalinamide], in test [1], the “Relative activity for each substrate” value is 63.
Consider `NC(=O)[C@@H](N)Cc1ccccc1` [L-phenylalaninamide], for which the “Relative activity for each substrate” value is recorded as 2 in test [1], 104 in test [4] and 111 in test [5].
As for `NC(=O)[C@@H](N)c1ccccc1` [L-phenylglycinamide], the “Relative activity for each substrate” value in test [5] is recorded as 113.
For `NC(=O)[C@@H](N)CO` [L-serinamide], the “Relative activity for each substrate” value in test [1] was 17; in test [4], 2.9.
As for `CC(C)(C)[C@H](N)C(N)=O` [L-t-leuicinamide], the figures for the “Relative activity for each substrate” value in test [4] and in test [5] were 0.2 and 8.4, respectively.
`C[C@@H](O)[C@H](N)C(N)=O` [L-threoninamide]: the “Relative activity for each substrate” value is given as 63 in test [1] and 14.6 in test [4].
`CC(C)[C@H](N)C(N)=O` [L-valinamide]: the results for the “Relative activity for each substrate” value in test [4] and in test [5] were 17.7 and 65, respectively.
With `N#C[C@@H](N)Cc1ccccc1` [Phenylalaninonitrile], the “Relative activity for each substrate” value in test [2] is 42.9. The compound further registered a Relative activity in test [2] (substrate concentration 10 mM) of 42.9.
Consider `N#CC(N)c1ccccc1` (stereo not drawn) [Phenylglycinonitirle], for which the “Relative activity for each substrate” value in test [2] turned out to be 177. In test [2] (substrate 20 mM), this compound had a Relative activity of 177.
Consider `CC(C)[C@H](N)C#N` [Valinonitrile], for which the “Relative activity for each substrate” value in test [2] is recorded as 15.1. This compound had a Relative activity in test [2] (substrate 20 mM) of 15.1.
For the compound `CC(C)C[C@H](N)C#N` [leucinonitrile], the “Relative activity for each substrate” value in test [2] was determined as 11.8.
In the case of `CC(C)(C)C(N)C#N` (stereo not drawn) [t-leuicinonitrile], the “Relative activity for each substrate” value in test [2] turned out to be 1.80. The compound further yielded a Relative activity in test [2] (substrate 20 mM) of 1.8.

These data come from patent US20100105111A1, “METHOD FOR PRODUCTION OF OPTICALLY ACTIVE AMINO ACID” (Mitsubishi Gas Chemical Company, Inc., priority 2007, published 2010).
